# Laboratory results taken from publication PMC12349723, “Computationally accelerated identification of P-glycoprotein inhibitors” (PLOS One, 2025).
# Tested on: not listed separately
# Experiment: SWISS-ADME computational analysis of chemical properties
# Conditions: predicted aqueous solubility compared to that observed in the laboratory
# Excerpt: (§1) Identifying P-gp inhibitors that are not transport substrates remains inherently challenging. To that end, computational tools such as the SWISS-ADME server attempt to use a molecule’s unique chemical and structural characteristics to predict whether it is likely to be a P-gp transport substrate. Our LC-MS/MS assays allowed us to retroactively test the validity of predictions from SWISS-ADME. […] Alternative identifiers for the molecules identified in this study are shown in S7 Table.
# (§2) S1 Table. Known P-gp Inhibitors and Predicted Chemical Properties. A non-exhaustive list of known P-gp inhibitors and their selected chemical properties ^[64, 65]. Clinical trial outcomes were adapted from ^[10, 11]. Compounds were evaluated using the SWISS-ADME server ^[54]. […] “Predicted P-gp Substrate” - predicted by SWISS-ADME to be a transport substrate of P-gp. “Known P-gp Substrate” – In addition to being P-gp inhibitors, these molecules are: known transport substrates of P-gp, known non-transport substrates of P-gp, unknown whether it is a transport substrate of P-gp ^[66-68]. If the molecule is designated in a specific generation of P-gp inhibitors - First Generation P-gp inhibitors, Second generation P-gp inhibitors, Third generation P-gp inhibitors.
row,Compound,Correct Water Solubility Prediction?
1,"CCN1CCN(Cc2c(C(=O)N/N=C3/C(=O)N(C)c4ccccc43)nnn2-c2nonc2N)CC1 [Compound 61, CCN1CCN(Cc2c(nnn2-c2nonc2N)C(=O)N\N=C2\C(=O)N(C)c3ccccc23)CC1]",No

# Tested on: P-gp
# Experiment: SWISS-ADME prediction of P-gp transport substrate
# Conditions: prediction compared to the LC-MS/MS intracellular accumulation data
# Excerpt: as §1, §2
row,Compound,Correct P-gp Substrate Prediction?
1,"CCN1CCN(Cc2c(C(=O)N/N=C3/C(=O)N(C)c4ccccc43)nnn2-c2nonc2N)CC1 [Compound 61, CCN1CCN(Cc2c(nnn2-c2nonc2N)C(=O)N\N=C2\C(=O)N(C)c3ccccc23)CC1]",Yes

# Molecular target: T1, P-gp (Homo sapiens, UniProt P08183)
# T1 construct: The MDR, P-gp overexpressing DU145-TXR cells were maintained under positive selection pressure; endogenous in cells; host or cells: DU145-TXR (paclitaxel-resistant sub-line of DU145 human prostate cancer cells)
# T1 sequence (P08183 whole entry): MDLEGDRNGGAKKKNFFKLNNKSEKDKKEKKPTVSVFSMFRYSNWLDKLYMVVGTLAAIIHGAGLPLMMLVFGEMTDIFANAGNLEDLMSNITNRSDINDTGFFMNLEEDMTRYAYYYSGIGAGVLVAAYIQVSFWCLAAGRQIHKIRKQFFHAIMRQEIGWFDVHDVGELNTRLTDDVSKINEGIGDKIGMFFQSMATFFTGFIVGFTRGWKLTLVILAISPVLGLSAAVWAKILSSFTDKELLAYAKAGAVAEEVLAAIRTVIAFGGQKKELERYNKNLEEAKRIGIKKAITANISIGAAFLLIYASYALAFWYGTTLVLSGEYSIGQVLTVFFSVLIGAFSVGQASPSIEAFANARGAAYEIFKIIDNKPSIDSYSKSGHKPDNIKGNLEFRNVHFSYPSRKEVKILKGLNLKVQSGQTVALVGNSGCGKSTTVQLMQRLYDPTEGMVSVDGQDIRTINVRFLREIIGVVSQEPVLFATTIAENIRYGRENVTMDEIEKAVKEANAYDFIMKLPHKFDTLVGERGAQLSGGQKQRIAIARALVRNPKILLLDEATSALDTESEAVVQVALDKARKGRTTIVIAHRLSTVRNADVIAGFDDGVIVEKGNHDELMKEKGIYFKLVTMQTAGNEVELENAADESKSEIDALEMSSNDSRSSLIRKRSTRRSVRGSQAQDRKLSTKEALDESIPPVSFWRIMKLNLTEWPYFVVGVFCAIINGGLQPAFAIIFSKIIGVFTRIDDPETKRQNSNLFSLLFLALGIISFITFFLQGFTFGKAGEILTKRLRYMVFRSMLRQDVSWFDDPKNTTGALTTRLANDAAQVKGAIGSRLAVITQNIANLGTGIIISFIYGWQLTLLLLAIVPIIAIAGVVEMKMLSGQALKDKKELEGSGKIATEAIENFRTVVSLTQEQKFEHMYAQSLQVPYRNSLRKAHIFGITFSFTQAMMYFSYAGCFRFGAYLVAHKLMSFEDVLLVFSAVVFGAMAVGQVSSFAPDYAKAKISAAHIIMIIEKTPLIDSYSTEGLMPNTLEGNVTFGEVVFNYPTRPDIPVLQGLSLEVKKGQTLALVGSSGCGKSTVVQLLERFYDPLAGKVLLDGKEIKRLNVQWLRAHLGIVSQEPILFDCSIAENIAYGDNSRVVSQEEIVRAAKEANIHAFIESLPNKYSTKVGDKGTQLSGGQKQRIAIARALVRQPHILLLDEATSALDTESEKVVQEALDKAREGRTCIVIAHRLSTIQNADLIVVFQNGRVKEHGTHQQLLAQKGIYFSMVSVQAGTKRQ
# Experiment: Top Hit classification from combined in vitro criteria
# Conditions: reverse MDR, do not increase PTX toxicity in chemo-sensitive cancer cells, non-toxic to noncancerous cells, not P-gp substrates
row,Compound,Top Hit
1,"CCN1CCN(Cc2c(C(=O)N/N=C3/C(=O)N(C)c4ccccc43)nnn2-c2nonc2N)CC1 [Compound 61, CCN1CCN(Cc2c(nnn2-c2nonc2N)C(=O)N\N=C2\C(=O)N(C)c3ccccc23)CC1]",No

# Tested on: DU145-TXR cells
# Experiment: MTT viability assay, reversal of MDR (re-sensitization to paclitaxel) in P-gp overexpressing DU145-TXR cells
# Format: cell-based, human
# Conditions: 15 µM compound + 500 nM PTX (Paclitaxel, Taxol); DU145-TXR; mean of 8 samples
# Procedure: The chemotherapeutic sensitive DU145 human prostate cancer cells and the multidrug resistant sub-line, DU145-TXR, were generous gifts from Dr. Evan Keller (University of Michigan, Ann Arbor, MI). The MDR, P-gp overexpressing DU145-TXR cells were maintained under positive selection pressure by supplementing complete medium with 10 nM paclitaxel (Acros Organics, NJ). In addition to the aforementioned cell lines, the chemotherapeutic sensitive A2780 ovarian cancer cells (93112519, Sigma) and the multidrug resistant A2780-ADR (93112520, Sigma) were maintained in complete RPMI media consisting of RPMI-1640 with L-glutamine, 10% fetal bovine serum (FBS; Corning), 100 U/mL penicillin and 100 μg/mL streptomycin in a humidified incubator at 37 °C and 5% CO2. The MDR, P-gp overexpressing A2780-ADR cell line was maintained under positive selection pressure by supplementing complete medium with 100 nM doxorubicin (Fisher Scientific, NJ). The non-cancerous HFL1 (human lung fibroblast) cell line cell line was a generous gift from Dr. Robert Harrod (Southern Methodist University, Dallas, TX) and was maintained in complete F12K media consisting of F12K with 10% fetal bovine serum, 100 U/mL penicillin, and 100 µg/mL streptomycin (Gibco). Flasks and 96 well plates that were used with the non-cancerous line HFL1 were pre-treated with 0.1 mg/ml Collagen Type 1 (Gibco) and rinsed with PBS (Fisher).
# Culture of the DU145, DU145-TXR, and HFL1 cell lines was performed as described in [8]. Culture of the A2780 and A2780-ADR cell lines was performed as described in [9]. MTT assays were performed as described in [8] with minor modifications. LC-MS/MS accumulation assays were performed as described in {Nanayakkara, 2018 #173} [9] with some modifications. […] The inhibitor concentration was lowered to 15 µM here, as the goal of the study was to identify compounds that were effective in reversing MDR at low concentrations, and to determine if the expanded virtual-assisted methods improved on our first-draft attempt. Compounds 56–98 were pre-screened using Resazurin cell viability assays: cells were incubated with 15 µM compound with or without 500 nM PTX for 48 hours, after which cell survival was assessed similar to [39]. Data represent the mean of two separate experiments, with n = 3 samples per experiment (n = 6 total) (S4 Table). The top performing compounds from this initial screen were re-tested with MTT viability assays against DU145-TXR cells, as described below.
# MTT assays measure the reduction of yellow, water soluble 3-(4,5-dimethylthiazol-2-yl)-2,5-diphenyltetrazolium bromide (MTT) to blue, insoluble formazan crystals by cellular reductase processes in living cells. Cells were trypsinized from monolayers and seeded in complete medium in 96 well plates. Cancerous cell lines (DU145, DU145-TXR, A2780, A2780-ADR) were seeded at 3,000 cells per well in complete RPMI medium. The non-cancerous HFL1 line was seeded at 4,000 cells per well in complete F12K medium, in collagen-treated plates (Collagen Type 1, Gibco). Cells were incubated with experimental compounds for 48 hours at 37 °C and 5% CO2 in a humidified incubator. At 48 hours, MTT was added (20 µL/well of 5 mg/mL MTT in PBS) to each well. After incubation for 4 hours, the media was removed, and the formazan crystals were dissolved in 100 µL DMSO per well. Plates containing the semi-adherent A2780 or A2780-ADR lines were spun at 1400 rpm for 3 minutes prior to aspiration of media, and the addition of DMSO. Plates were shaken for 10 minutes at 500 rpm on an Orbital shaker (LabDoctor from MidSci, St Louis, MO). The absorbance was measured at 570 nm using a Bio-Tek Cytation 5 (Bio-Tek, Winooski, VT). The measured absorbance value was correlated with the number of metabolically active cells in that well, corrected for absorbance of media. […]
row,Compound,"% Survival, mean"
1,"CCN1CCN(Cc2c(C(=O)N/N=C3/C(=O)N(C)c4ccccc43)nnn2-c2nonc2N)CC1 [Compound 61, CCN1CCN(Cc2c(nnn2-c2nonc2N)C(=O)N\N=C2\C(=O)N(C)c3ccccc23)CC1]",51.6%

# Same assay, conditions: 15 µM compound + 500 nM PTX (Paclitaxel, Taxol); DU145-TXR; trial 1, sample 1
row,Compound,% Survival
1,"CCN1CCN(Cc2c(C(=O)N/N=C3/C(=O)N(C)c4ccccc43)nnn2-c2nonc2N)CC1 [Compound 61, CCN1CCN(Cc2c(nnn2-c2nonc2N)C(=O)N\N=C2\C(=O)N(C)c3ccccc23)CC1]",62%

# Same assay, conditions: 15 µM compound + 500 nM PTX (Paclitaxel, Taxol); DU145-TXR; trial 1, sample 2
row,Compound,% Survival
1,"CCN1CCN(Cc2c(C(=O)N/N=C3/C(=O)N(C)c4ccccc43)nnn2-c2nonc2N)CC1 [Compound 61, CCN1CCN(Cc2c(nnn2-c2nonc2N)C(=O)N\N=C2\C(=O)N(C)c3ccccc23)CC1]",67%

# Same assay, conditions: 15 µM compound + 500 nM PTX (Paclitaxel, Taxol); DU145-TXR; trial 1, sample 3
row,Compound,% Survival
1,"CCN1CCN(Cc2c(C(=O)N/N=C3/C(=O)N(C)c4ccccc43)nnn2-c2nonc2N)CC1 [Compound 61, CCN1CCN(Cc2c(nnn2-c2nonc2N)C(=O)N\N=C2\C(=O)N(C)c3ccccc23)CC1]",64%

# Same assay, conditions: 15 µM compound + 500 nM PTX (Paclitaxel, Taxol); DU145-TXR; trial 1, sample 4
row,Compound,% Survival
1,"CCN1CCN(Cc2c(C(=O)N/N=C3/C(=O)N(C)c4ccccc43)nnn2-c2nonc2N)CC1 [Compound 61, CCN1CCN(Cc2c(nnn2-c2nonc2N)C(=O)N\N=C2\C(=O)N(C)c3ccccc23)CC1]",77%

# Same assay, conditions: 15 µM compound + 500 nM PTX (Paclitaxel, Taxol); DU145-TXR; trial 2, sample 1
row,Compound,% Survival
1,"CCN1CCN(Cc2c(C(=O)N/N=C3/C(=O)N(C)c4ccccc43)nnn2-c2nonc2N)CC1 [Compound 61, CCN1CCN(Cc2c(nnn2-c2nonc2N)C(=O)N\N=C2\C(=O)N(C)c3ccccc23)CC1]",33%

# Same assay, conditions: 15 µM compound + 500 nM PTX (Paclitaxel, Taxol); DU145-TXR; trial 2, sample 2
row,Compound,% Survival
1,"CCN1CCN(Cc2c(C(=O)N/N=C3/C(=O)N(C)c4ccccc43)nnn2-c2nonc2N)CC1 [Compound 61, CCN1CCN(Cc2c(nnn2-c2nonc2N)C(=O)N\N=C2\C(=O)N(C)c3ccccc23)CC1]",35%

# Same assay, conditions: 15 µM compound + 500 nM PTX (Paclitaxel, Taxol); DU145-TXR; trial 2, sample 3
row,Compound,% Survival
1,"CCN1CCN(Cc2c(C(=O)N/N=C3/C(=O)N(C)c4ccccc43)nnn2-c2nonc2N)CC1 [Compound 61, CCN1CCN(Cc2c(nnn2-c2nonc2N)C(=O)N\N=C2\C(=O)N(C)c3ccccc23)CC1]",31%
